Laboratory results: patent US20070202512A1, “Human single nucleotide polymorphisms associated with dose-dependent weight gain and methods of use thereof” (Bristol-Myers Squibb Company, priority 2005, published 2007)

Experiments:
[1] = thought to be due to increased fluid retention and fat accumulation; cited from earlier work
[2] = Phase II clinical trial CV168-006: weight gain by PPAR-alpha SNP1 (Leu162Val) genotype; format: in vivo, human
Method: Genomic DNA samples from patients enrolled in a Bristol-Myers Squibb Company Phase II clinical trial CV168-006 trial were genotyped for 1 SNP identified in the human PPAR-alpha gene (see Example 1) and evaluated for association with weight gain.
(§1) 498 subjects enrolled in the CV168-006 trial were analyzed in this study. All analyses were based on data collected up to 24 weeks, which was the duration of the short-term phase of the trials. DNA was extracted from frozen blood by a third-party (Genaissance Inc, North Carolina) using a salting-out method (Gentra Systems). All subjects gave written informed consent.
(§2) Genotyping was performed using the 5′ nuclease assay, essentially as described (Ranade K et al., Genome Research 11: 1262-1268 (2001); which is hereby incorporated by reference herein in its entirety), with the following modifications: six nanograms of genomic DNA were used in a 8 ul reaction. All PCR reactions were performed in an ABI 9700 machine and fluorescence was measured using an ABI 7900 machine.
The association between weight gain and the single nucleotide polymorphisms of the present invention were investigated by applying statistical analysis to the results of the genotyping assays described elsewhere herein. […]
Statistical Analyses. The influence of the SNP on weight gain was assessed using ANOVA. […]

[3] = Phase II clinical trial CV168-006: weight gain by GRL SNP1 (Asn363Ser) genotype; format: in vivo, human; details: patients treated with 20 mg in CV168-006; data up to 24 weeks
Method: (§3) Genomic DNA samples from patients enrolled in two Bristol-Myers Squibb Company Phase II clinical trial CV168-006 were genotyped for 1 SNP identified in the human GRL gene (see Example 7) and evaluated for association with weight gain.
as §1
(§4) The influence on SNP1 on weight gain and the probability of achieving lower levels of glycosylated hemoglobin (HbA1C) was assessed using ANOVA (GRL; P=0.005; P=0.007; respectively).
as §2, with “machine. […]” for “machine.”
(§5) Statistical Analyses. The influence of the SNP on weight gain and decreased glycosylated hemoglobin (HbA1C) was assessed using ANOVA. […]

[4] = test system: glycosylated hemoglobin (HbA1C); assay: Phase II clinical trial CV168-006: glycosylated hemoglobin (HbA1C) by GRL SNP1 (Asn363Ser) genotype; format: in vivo, human; details: patients treated with 20 mg in CV168-006; data up to 24 weeks
Method: as §3, §1, §4
as §2, with “machine. […]” for “machine.”
as §5

CN(CCOc1ccc(CC2SC(=O)NC2=O)cc1)c1ccccn1 (stereo not shown) [rosiglitazone]
weight gain (side effect) [1]: can cause weight gain in some individuals

COc1ccc(OC(=O)N(CC(=O)O)Cc2ccc(OCCc3nc(-c4ccccc4)oc3C)cc2)cc1 [Compound A, N-[(4-methoxyphenoxy)carbonyl]-N-[[4-[2-(5-methyl-2-phenyl-4-oxazolyl)ethoxy]phenyl]methyl]glycine]
weight gain, carriers of the Valine allele vs homozygous Leucine allele (PPARα residue 162) ([2]; patients of a Phase II trial, Val carriers compared with Leu/Leu): gained significantly less weight | influence of PPAR-alpha SNP1 on weight gain, P (ANOVA) ([2]; patients treated with 20 mg in CV168-006, data up to 24 weeks): 0.039 | influence of GRL SNP1 on weight gain, P (ANOVA) [3]: 0.005 | influence of GRL SNP1 on lower levels of glycosylated hemoglobin (HbA1C), P (ANOVA) [4]: 0.007 | weight gain (side effect) [1]: result in weight gain

CCc1ccc(CCOc2ccc(CC3SC(=O)NC3=O)cc2)nc1 (stereo not shown) [pioglitazone]
weight gain (side effect) [1]: can cause weight gain in some individuals
